Experimental data taken from patent US6420406B1, “Triazolyl disulphides” (Bayer Aktiengesellschaft, priority 1996, dated 2002).

Legend:
Format in all cases: in vivo
Venturia inaequalis = assay: Venturia test (apple)/protective; conditions: protective, application rate 50 g/ha, evaluation 12 days after inoculation, 100% = no infection
Protocol: (§1) Venturia test (apple)/protective Solvent: 47 parts by weight of acetone Emulsifier: 3 parts by weight of alkylaryl polyglycol ether To produce a suitable preparation of active compound, 1 part by weight of active compound is mixed with the stated amounts of solvent and emulsifier, and the concentrate is diluted with water to the desired concentration. To test for protective activity, young plants are sprayed with the preparation of active compound at the stated application rate. After the spray coating has dried on, the plants are inoculated with an aqueous conidia suspension of the causative organism of apple scab Venturia inaequalis and then remain placed at 20° C. and a relative atmospheric humidity of approximately 70% for 1 day. The plants are then placed in a greenhouse at 20° C. and at a relative atmospheric humidity of approximately 70%.

Podosphaera leucotricha = assay: Podosphaera test (apple)/protective; conditions: protective, application rate 50 g/ha, evaluation 10 days after inoculation, 100% = no infection
Protocol: as §1, with “Podosphaera” for “Venturia”, “product” for “produce”, “spore” for “conidia”, “mildew Podosphaera leucotricha.” for “scab Venturia inaequalis and then remain placed at 20° C. and a relative atmospheric humidity of approximately 70% for 1 day.”, “23°” for “20°”, “75%.” for “70%.”

Sphaerotheca fuliginea = assay: Sphaerotheca test (cucumber)/protective; conditions: protective, application rate 50 g/ha, evaluation 10 days after inoculation, 100% = no infection
Protocol: Sphaerotheca test (cucumber/protective Solvent: 47 parts by weight of acetone Emulsifier: 3 parts by weight of alkylaryl polyglycol ether To produce a suitable preparation of active compound, 1 part by weight of active compound is mixed with the stated amounts of solvent and emulsifier, and the concentrate is diluted with water to the desired concentration. To test for protective activity, young plants are sprayed with the preparation of active compound at the stated application rate. After the spray coating has dried on, the plants are inoculated with an aqueous spore suspension of Sphaerotheca fuliginea. The plants are subsequently placed in a greenhouse at 23 to 24° C. and at a relative atmospheric humidity of approximately 75%.

[1] = system: Erysiphe graminis f.sp. hordei; assay: Erysiphe test (barley)/protective; conditions: protective, application rate 250 g/ha, evaluation 7 days after inoculation, 100% = no infection
Protocol: (§2) Erysiphe test (barley)/protective Solvent: 10 parts by weight of N-methyl-pyrrolidone Emulsifier: 0.6 parts by weight of alkylaryl polyglycol ether To prepare a suitable preparation of active compound, 1 part by weight of active compound if mixed with the stated amounts of solvent and emulsifier, and the concentrate is diluted with water to the desired concentration. To test for protective activity, young plants are sprayed with the preparation of active compound at the stated application rate. After the spray coating has dried on, the plants are dusted with spores of Erysiphe graminis f.sp. hordei. The plants are placed in a greenhouse at a temperature of approximately 20° C. and a relative atmospheric humidity of approximately 80%, in order to promote the development of mildew pustules.

[2] = system: Erysiphe graminis f.sp. hordei; assay: Erysiphe test (barley)/curative; conditions: curative, sprayed 48 hours after inoculation, application rate 250 g/ha, evaluation 7 days after inoculation, 100% = no infection
Protocol: Erysiphe Test (barley)/curative Solvent: 10 parts by weight of N-methyl-pyrrolidone Emulsifier: 0.6 parts by weight of alkylaryl polyglycol ether To product a suitable preparation of active compound 1 part by weight of active compound is mixed with the stated amounts of solvent and emulsifier, and the concentrate is diluted with water to the desired concentration. To test for curative activity, young plants are dusted with spores of Erysiphe graminis f.sp. hordei. 48 hours after the incubation, the plants are sprayed with the preparation of active compound at the stated application rate. The plants are placed in a greenhouse at a temperature of approximately 20° C. and a relative atmospheric humidity of approximately 80%, in order to promote the development of mildew pustules.

Fusarium graminearum = conditions: barley, protective, application rate 250 g/ha, evaluation 4 days after inoculation; 100% = no infection
[3] = system: Erysiphe graminis f.sp. tritci; assay: Erysiphe test (wheat)/protective; conditions: protective, application rate 250 g/ha, evaluation 7 days after inoculation, 100% = no infection
Protocol: as §2, with “test (wheat)/protective” for “test (barley)/protective”, “compound is” for “compound if”, “graminis […].” for “graminis f.sp. hordei.”

Puccinia recondita = assay: Puccinia test (wheat)/curative; conditions: curative, sprayed 48 hours after inoculation, application rate 250 g/ha, evaluation 10 days after inoculation, 100% = no infection
Protocol: Puccinia test (wheat/curative Solvent: 10 parts by weight of N-methyl-pyrrolidone Emulsifier: 0.6 part by weight of alkylaryl polyglycol ether To product a suitable preparation of active compound, 1 part by weight of active compound is mixed with the stated amounts of solvent and emulsifier, and the concentrate is diluted with water to the desired concentration. […] 48 hours after the inoculation the plants are sprayed with the preparation of active compound at the stated application rate. The plants are placed in a greenhouse at a temperature of approximately 20° C. and a relative atmospheric humidity of approximately 80%, in order to promote the development of rust pustules.

[4] = system: W strain of Pseudocercosporella herpotrichoides; assay: Pseudocercosporella herpotrichoides test; W strain (wheat)/protective; conditions: protective, application rate 250 g/ha, evaluation 21 days after inoculation, 100% = no infection
Protocol: Pseudocercosporella herpotrichoides test; W strain (wheat/protective Solvent: 10 parts by weight of N-methyl-pyrrolidone Emulsifier: 0.6 part by weight of alkylaryl polyglycol ether To product a suitable preparation of active compound, 1 part by weight of active compound is mixed with the stated amounts of solvent and emulsifier, and the concentrate is diluted with water to the desired concentration. To test for protective activity, young plants are sprayed with the preparation of active compound at the stated application rate. After the spray coating has dried on, the plants are inoculated at the base of the stem with spores of the W strain of Pseudocercosporella herpotrichoides. The plants are placed in a greenhouse at a temperature of approximately 10° C. and a relative atmospheric humidity of approximately 80%.

Structure (SMILES)	Efficacy in % (Venturia inaequalis)	Efficacy in % (Podosphaera leucotricha)	Efficacy in % (Sphaerotheca fuliginea)	Efficacy in % [1]	Efficacy in % [2]	Efficacy in % (Fusarium graminearum)	Efficacy in % [3]	Efficacy in % (Puccinia recondita)	Efficacy in % [4]
OC(Cc1ccccc1Cl)(Cn1ncnc1SSc1ncnn1CC(O)(Cc1ccccc1Cl)C1(Cl)CC1)C1(Cl)CC1 (centres unmarked) [Example I-1, di-{1-[2-(1-chlorocyclopropyl)-3-(2-chloro-phenyl)-2-hydroxy-propyl-1]-1,2,4-triazol-5-yl} disulphide]	100%	100%	100%	100%	100%	100%	100%	100%	100%
Fc1ccc(C2(Cn3ncnc3SSc3ncnn3CC3(c4ccc(F)cc4)OC3c3ccccc3Cl)OC2c2ccccc2Cl)cc1 (centres unmarked) [Example I-2]		96%	92%						
